This note sets out measurements from patent US9163256B2, “Mutant receptors and their use in a nuclear receptor-based inducible gene expression system” (priority 2004, dated 2015).

Structures are written as SMILES.

One data set addresses CfEcR-DEF mutant M125I (Choristoneura fumiferana, UniProt O77255, M408I). Description: GAL4-driven luciferase reporter assay in NIH3T3 cells. The format is cell-based. A digest of the protocol:
(§1)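 Mutant CfEcR-DEF receptor and GAL4-driven luciferase reporter constructs transfected into mouse NIH3T3 cells with DMSO or ligand added; maintained 48 h at 37° C in 5% FBS, harvested 40 h after ligand addition. Dual-luciferase read-out; fold induction = RLU with ligand / RLU with DMSO.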
For orientation: Reporter assays use an easily measured gene product as a stand-in for the process of interest.

Another data set has as its target CfEcR-DEF mutant M219W (Choristoneura fumiferana, UniProt O77255, M502W). Described as above. It is filed as cell-based. Summed up:
as §1

In a further data set the target is CfEcR-DEF mutant L234R (Choristoneura fumiferana, UniProt O77255, L517R). Described as above. The format is cell-based. A digest of the protocol: as §1
The target in another data set is CfEcR-DEF mutant M125G (Choristoneura fumiferana, UniProt O77255, M408G). Described as above. It is filed as cell-based. A digest of the protocol: as §1
In the next data set the target is CfEcR-DEF mutant F48R (Choristoneura fumiferana, UniProt O77255, F331R). The description is as above. It is filed as cell-based. A digest of the protocol: as §1
The target in the next data set is CfEcR-DEF mutant T52G (Choristoneura fumiferana, UniProt O77255, T335G). Described as above. It is filed as cell-based. Summed up: as §1
The next data set deals with CfEcR-DEF mutant M125S (Choristoneura fumiferana, UniProt O77255, M408S). The data set is described as above. It is filed as cell-based. A digest of the protocol: as §1
The next data set addresses CfEcR-DEF mutant L223R (Choristoneura fumiferana, UniProt O77255, L506R). Described as above. It is filed as cell-based. A digest of the protocol: as §1
In another data set the target is CfEcR-DEF mutant T52M (Choristoneura fumiferana, UniProt O77255, T335M). Described as above. It is filed as cell-based. Summed up:
as §1

The target in the next data set is CfEcR-DEF mutant L234W (Choristoneura fumiferana, UniProt O77255, L517W). The data set is described as above. The format is cell-based. A digest of the protocol: as §1
In the next data set the target is CfEcR-DEF mutant F48K (Choristoneura fumiferana, UniProt O77255, F331K). The data set is described as above. The format is cell-based. Summed up: as §1
A further data set concerns the target CfEcR-DEF mutant M219A (Choristoneura fumiferana, UniProt O77255, M502A). Described as above. It is filed as cell-based. Summed up:
as §1

Another data set deals with CfEcR-DEF mutant L223Y (Choristoneura fumiferana, UniProt O77255, L506Y). The data set is described as above. It is filed as cell-based. Summed up: as §1
The target in a further data set is CfEcR-DEF mutant I51M (Choristoneura fumiferana, UniProt O77255, I334M). The data set is described as above. It is filed as cell-based. A digest of the protocol:
as §1

A further data set deals with CfEcR-DEF mutant M219Y (Choristoneura fumiferana, UniProt O77255, M502Y). The data set is described as above. It is filed as cell-based. A digest of the protocol: as §1
For the next data set, the target named is CfEcR-DEF mutant L132E (Choristoneura fumiferana, UniProt O77255, L415E). The description is as above. It is filed as cell-based. A digest of the protocol:
as §1

The next data set deals with CfEcR-DEF mutant M219K (Choristoneura fumiferana, UniProt O77255, M502K). The description is as above. The format is cell-based. Summed up: as §1
A further data set concerns the target CfEcR-DEF mutant M125V (Choristoneura fumiferana, UniProt O77255, M408V). Described as above. It is filed as cell-based. A digest of the protocol: as §1
The next data set concerns the target CfEcR-DEF mutant W238L (Choristoneura fumiferana, UniProt O77255, W521L). Described as above. The format is cell-based. Summed up: as §1
The target of a further data set is CfEcR-DEF mutant M125N (Choristoneura fumiferana, UniProt O77255, M408N). Described as above. It is filed as cell-based. A digest of the protocol:
as §1

[1] abbreviates: NIH3T3, 40 h, read-out: Rel Max FI.

CfEcR-DEF mutant L132E, sequence (O77255 entry or part of it L415E): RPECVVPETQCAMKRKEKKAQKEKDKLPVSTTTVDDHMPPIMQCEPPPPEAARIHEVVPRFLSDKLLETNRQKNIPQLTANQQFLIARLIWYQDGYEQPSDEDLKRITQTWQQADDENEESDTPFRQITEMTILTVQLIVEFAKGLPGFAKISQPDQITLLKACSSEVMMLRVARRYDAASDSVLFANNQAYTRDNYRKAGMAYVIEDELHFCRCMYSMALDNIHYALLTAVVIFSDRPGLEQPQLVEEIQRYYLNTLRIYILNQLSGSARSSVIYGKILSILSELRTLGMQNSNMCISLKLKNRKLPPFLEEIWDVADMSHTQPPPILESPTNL
CfEcR-DEF mutant L132E, sequence (P28702 298-449, further chain): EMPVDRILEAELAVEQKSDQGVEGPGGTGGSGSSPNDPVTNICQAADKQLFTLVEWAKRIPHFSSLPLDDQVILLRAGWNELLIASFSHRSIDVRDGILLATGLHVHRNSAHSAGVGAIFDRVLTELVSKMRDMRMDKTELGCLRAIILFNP
CfEcR-DEF mutant M219A, sequence (O77255 entry or part of it M502A): as the sequence (O77255 entry or part of it L415E) above, with E209L, M296A counted along it
CfEcR-DEF mutant M219A, sequence (P28702 299-449, further chain): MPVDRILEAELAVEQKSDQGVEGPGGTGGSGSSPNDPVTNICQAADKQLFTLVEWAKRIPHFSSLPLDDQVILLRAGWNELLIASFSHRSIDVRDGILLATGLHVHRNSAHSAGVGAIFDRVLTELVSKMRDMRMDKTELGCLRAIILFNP
CfEcR-DEF mutant F48R, sequence (O77255 entry or part of it F331R): as the sequence (O77255 entry or part of it L415E) above, with F125R, E209L counted along it
CfEcR-DEF mutant F48R, sequence (P28702 299-449, further chain): as the sequence (P28702 299-449, further chain) above
CfEcR-DEF mutant M125N, sequence (O77255 entry or part of it M408N): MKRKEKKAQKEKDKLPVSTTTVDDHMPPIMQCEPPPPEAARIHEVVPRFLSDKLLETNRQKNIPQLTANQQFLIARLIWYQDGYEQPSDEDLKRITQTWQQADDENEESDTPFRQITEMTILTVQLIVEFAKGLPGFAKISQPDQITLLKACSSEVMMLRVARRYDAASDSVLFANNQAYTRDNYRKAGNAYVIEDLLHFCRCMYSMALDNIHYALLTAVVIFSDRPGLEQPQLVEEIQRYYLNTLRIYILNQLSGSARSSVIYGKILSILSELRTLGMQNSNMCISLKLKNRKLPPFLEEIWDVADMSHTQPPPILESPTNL
CfEcR-DEF mutant M125N, sequence (P28702 299-449, further chain): as the sequence (P28702 299-449, further chain) above
CfEcR-DEF mutant L223R, sequence (O77255 entry or part of it L506R): as the sequence (O77255 entry or part of it M408N) above, with N190M, L288R counted along it
CfEcR-DEF mutant L223R, sequence (P28702 299-449, further chain): as the sequence (P28702 299-449, further chain) above
CfEcR-DEF mutant L234W, sequence (O77255 entry or part of it L517W): as the sequence (O77255 entry or part of it L415E) above, with E209L, L311W counted along it
CfEcR-DEF mutant L234W, sequence (P28702 299-449, further chain): as the sequence (P28702 299-449, further chain) above
CfEcR-DEF mutant L234R, sequence (O77255 entry or part of it L517R): as the sequence (O77255 entry or part of it L415E) above, with E209L, L311R counted along it
CfEcR-DEF mutant L234R, sequence (P28702 299-449, further chain): as the sequence (P28702 299-449, further chain) above
CfEcR-DEF mutant T52M, sequence (O77255 entry or part of it T335M): as the sequence (O77255 entry or part of it L415E) above, with T129M, E209L counted along it
CfEcR-DEF mutant T52M, sequence (P28702 298-449, further chain): as the sequence (P28702 298-449, further chain) above
CfEcR-DEF mutant T52G, sequence (O77255 entry or part of it T335G): as the sequence (O77255 entry or part of it L415E) above, with T129G, E209L counted along it
CfEcR-DEF mutant T52G, sequence (P28702 298-449, further chain): as the sequence (P28702 298-449, further chain) above

For orientation: melting point means the temperature of the solid-liquid transition. As for `Cc1cc(C)cc(C(=O)N(NC(=O)c2cccc(C(C)C)c2C)C(C)(C)C)c1` [RG-102362, 3,5-Dimethyl-benzoic acid N-tert-butyl-N′-(3-isopropyl-2-methyl-benzoyl)-hydrazide], the melting point is 182.5 °C.
What is called EC50 is the midpoint of the concentration-response curve. A high value points to a need for much substance. Turning to `CCc1c(OC)cccc1C(=O)NN(C(=O)c1cc(C)cc(C)c1)C(C)(C)C` [RG-102240, N-(2-ethyl-3-methoxybenzoyl)-N′-(3,5-dimethylbenzoyl)-N′-tert-butylhydrazine], the EC50 on CfEcR-DEF mutant M125I is 1360 nM; on CfEcR-DEF mutant M219W, 3.35 µM; at CfEcR-DEF mutant L234R, 17.1 µM; on CfEcR-DEF mutant M125G it was 14.2 µM; on CfEcR-DEF mutant F48R, 7.23 µM; on CfEcR-DEF mutant T52G, 3.52 µM. For the same molecule, the EC50 on CfEcR-DEF mutant M125S came to 12.3 µM; at CfEcR-DEF mutant L223R, 8.69 µM; at CfEcR-DEF mutant T52M, 6.74 µM; on CfEcR-DEF mutant L234W it was 11.5 µM; at CfEcR-DEF mutant F48K it was 11.1 µM; at CfEcR-DEF mutant M219A it was 2900 nM. The EC50 on CfEcR-DEF mutant L223Y turned out to be 3.15 µM; at CfEcR-DEF mutant I51M it was 3.94 µM; at CfEcR-DEF mutant M219Y it was 820 nM; on CfEcR-DEF mutant L132E, 410 nM; at CfEcR-DEF mutant M219K, 2900 nM; at CfEcR-DEF mutant M125V, 1640 nM. The EC50 at CfEcR-DEF mutant W238L came to 11.1 µM; on CfEcR-DEF mutant M125N, 9.88 µM. For the same molecule, the Emax on CfEcR-DEF mutant M125I (setting [1]), at CfEcR-DEF mutant M219W (setting [1]), at CfEcR-DEF mutant L234R (setting [1]), at CfEcR-DEF mutant M125G (setting [1]), at CfEcR-DEF mutant F48R (setting [1]) and at CfEcR-DEF mutant T52G (setting [1]) was 100% throughout. The Emax was 100% on CfEcR-DEF mutant M125S (setting [1]); 100% on CfEcR-DEF mutant L223R (setting [1]); 100% on CfEcR-DEF mutant T52M (NIH3T3, 40 h, read-out: Rel MaxFI); 100% at CfEcR-DEF mutant L234W (setting [1]); 100% at CfEcR-DEF mutant F48K (setting [1]); 100% at CfEcR-DEF mutant M219A (setting [1]). The Emax on CfEcR-DEF mutant L223Y (setting [1]), at CfEcR-DEF mutant I51M (setting [1]), on CfEcR-DEF mutant M219Y (setting [1]), on CfEcR-DEF mutant L132E (setting [1]), on CfEcR-DEF mutant M219K (setting [1]) and at CfEcR-DEF mutant M125V (setting [1]) was 100% in each case. The Emax at CfEcR-DEF mutant W238L (setting [1]) and at CfEcR-DEF mutant M125N (setting [1]) was 100% in each case.
